In ChEMBL document CHEMBL1129976, “New benzocycloalkylpiperazines, potent and selective 5-HT1A receptor ligands” (J Med Chem, 1997):

What was measured:
[1] = target: T1, 5-hydroxytryptamine receptor 1A (Rattus norvegicus) (UniProt P19327); assay: Inhibition of [3H]8-OH-DPAT binding to 5-hydroxytryptamine 1A receptor in rat hippocampal membranes at 10e-7 M; format: cell membranes; settings: Hippocampus, Membrane
T1 sequence (whole entry): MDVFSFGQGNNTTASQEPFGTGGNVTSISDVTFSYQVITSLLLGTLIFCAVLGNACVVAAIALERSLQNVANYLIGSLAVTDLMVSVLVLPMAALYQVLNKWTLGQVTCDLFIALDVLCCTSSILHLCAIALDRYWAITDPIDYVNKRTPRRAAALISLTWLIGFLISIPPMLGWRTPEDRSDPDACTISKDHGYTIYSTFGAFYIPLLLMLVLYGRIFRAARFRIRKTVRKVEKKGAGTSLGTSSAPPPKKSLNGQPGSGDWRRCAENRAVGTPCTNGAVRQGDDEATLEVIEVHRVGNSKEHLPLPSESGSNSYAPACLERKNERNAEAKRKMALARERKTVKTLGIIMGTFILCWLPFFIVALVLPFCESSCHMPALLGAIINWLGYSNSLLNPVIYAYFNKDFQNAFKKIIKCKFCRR

Bos taurus [2] = species on record: Bos taurus; assay: Inhibition of [3H]ketanserin binding to 5-hydroxytryptamine 2 receptor of bovine frontal cortex at 10e-7 M; format: tissue-based
Bos taurus [3] = species on record: Bos taurus; assay: Inhibition of [3H]prazosin binding to Alpha-1 adrenergic receptor of calf frontal cortex at 10e-7 M; format: tissue-based
[4] = target: D(2) dopamine receptor (Bos taurus) (UniProt P20288); assay: Inhibition of [3H]YM-09151-2 binding to Dopamine receptor D2 of bovine striatal preparations at 10e-7 M
D(2) dopamine receptor (Bos taurus), sequence (P20288 whole entry): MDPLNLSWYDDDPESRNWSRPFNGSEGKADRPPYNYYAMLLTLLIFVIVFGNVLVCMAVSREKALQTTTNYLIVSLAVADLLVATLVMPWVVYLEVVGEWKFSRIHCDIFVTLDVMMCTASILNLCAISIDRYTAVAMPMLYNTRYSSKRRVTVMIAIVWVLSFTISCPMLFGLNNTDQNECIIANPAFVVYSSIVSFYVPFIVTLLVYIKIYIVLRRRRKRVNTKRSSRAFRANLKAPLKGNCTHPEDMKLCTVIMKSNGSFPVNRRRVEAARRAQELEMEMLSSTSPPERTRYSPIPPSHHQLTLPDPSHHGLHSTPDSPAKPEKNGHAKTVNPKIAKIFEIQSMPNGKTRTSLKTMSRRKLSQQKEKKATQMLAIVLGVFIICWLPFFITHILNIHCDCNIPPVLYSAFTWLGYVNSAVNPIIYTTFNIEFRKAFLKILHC

[5] = target: T2, 5-hydroxytryptamine receptor 1A (Rattus norvegicus, UniProt P19327); assay: Displacement of [3H]8-OH-DPAT from 5-hydroxytryptamine 1A receptor of rat hippocampal membranes; format: cell membranes, Membrane
T2 sequence (P19327 whole entry): T1 sequence (whole entry)

[6] = target: T2, 5-hydroxytryptamine receptor 1A; assay: Inhibition of forskolin-activated adenylate cyclase (cAMP) activity at 5-hydroxytryptamine 1A receptor in rat hippocampus; format: functional, tissue-based
[7] = Inhibition of [3H]ketanserin binding to 5-hydroxytryptamine 2 receptor of bovine frontal cortex; format: tissue-based, Bos taurus
D(2) dopamine receptor = D(2) dopamine receptor (Bos taurus, UniProt P20288); assay: Inhibition of [3H]raclopride binding to Dopamine receptor D2 of bovine striatum; format: tissue-based
D(2) dopamine receptor, sequence (P20288 whole entry): as above

[8] = target: Sigma non-opioid intracellular receptor 1 (Rattus norvegicus, UniProt Q9R0C9); assay: Inhibition of [3H]DTG binding to sigma receptor in rat hippocampus; format: tissue-based
Sigma non-opioid intracellular receptor 1 (Rattus norvegicus, UniProt Q9R0C9), sequence (Q9R0C9 whole entry): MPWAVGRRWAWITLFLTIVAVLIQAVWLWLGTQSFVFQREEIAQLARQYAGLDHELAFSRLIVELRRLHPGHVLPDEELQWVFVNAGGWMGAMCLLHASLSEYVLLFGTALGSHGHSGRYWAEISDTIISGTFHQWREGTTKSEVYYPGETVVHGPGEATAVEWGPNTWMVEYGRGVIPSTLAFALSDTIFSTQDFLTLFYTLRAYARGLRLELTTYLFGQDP

[9] = Displacement of [3H]-prazosin from Alpha-1 adrenergic receptor of bovine frontal cortex; format: tissue-based, Bos taurus
Histamine H1 receptor = Histamine H1 receptor (Rattus norvegicus, UniProt P31390); assay: Inhibition of [3H]pyrilamine binding to Histamine H1 receptor in rat cortex
Histamine H1 receptor, sequence (P31390 whole entry): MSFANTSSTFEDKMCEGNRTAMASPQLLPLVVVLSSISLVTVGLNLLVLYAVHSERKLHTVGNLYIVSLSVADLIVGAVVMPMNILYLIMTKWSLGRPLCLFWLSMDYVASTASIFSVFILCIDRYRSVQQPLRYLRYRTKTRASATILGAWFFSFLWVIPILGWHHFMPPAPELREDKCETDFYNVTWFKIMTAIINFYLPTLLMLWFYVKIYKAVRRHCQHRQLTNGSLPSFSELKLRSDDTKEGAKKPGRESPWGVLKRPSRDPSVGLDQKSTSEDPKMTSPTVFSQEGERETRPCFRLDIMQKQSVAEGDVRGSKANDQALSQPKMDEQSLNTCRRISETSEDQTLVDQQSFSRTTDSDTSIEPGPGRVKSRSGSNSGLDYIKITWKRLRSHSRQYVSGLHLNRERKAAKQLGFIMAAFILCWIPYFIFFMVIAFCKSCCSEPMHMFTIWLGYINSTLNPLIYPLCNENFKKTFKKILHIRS

Rattus norvegicus = assay: in vivo behavioral test for Lower Lip Retraction(LLR) (msad=minimum significant active dose) in rats; format: functional
D(1A) dopamine receptor [10] = target: T3, D(1A) dopamine receptor (Bos taurus, UniProt Q95136); assay: Inhibition of [3H]SCH-23390 binding to Dopamine receptor D1 of bovine striatum; format: tissue-based
T3 sequence (Q95136 whole entry): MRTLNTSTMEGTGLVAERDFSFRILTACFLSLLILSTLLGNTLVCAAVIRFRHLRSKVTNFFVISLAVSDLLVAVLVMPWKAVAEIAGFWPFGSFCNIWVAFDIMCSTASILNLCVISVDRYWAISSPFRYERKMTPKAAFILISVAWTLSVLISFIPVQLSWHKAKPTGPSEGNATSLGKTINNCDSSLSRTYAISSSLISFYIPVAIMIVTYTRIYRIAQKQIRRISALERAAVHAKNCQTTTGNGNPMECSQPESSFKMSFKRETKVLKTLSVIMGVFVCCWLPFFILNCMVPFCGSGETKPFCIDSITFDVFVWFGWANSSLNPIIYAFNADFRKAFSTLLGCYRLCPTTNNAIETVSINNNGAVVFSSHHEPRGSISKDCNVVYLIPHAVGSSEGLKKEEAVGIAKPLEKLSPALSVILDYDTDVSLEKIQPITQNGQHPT

[11] = target: 5-hydroxytryptamine receptor 1D (Sus scrofa, UniProt P79400); assay: Binding affinity against 5-hydroxytryptamine 1D receptor using [3H]5-HT in pig striatum + frontalCortex; format: tissue-based
5-hydroxytryptamine receptor 1D, sequence (P79400 whole entry): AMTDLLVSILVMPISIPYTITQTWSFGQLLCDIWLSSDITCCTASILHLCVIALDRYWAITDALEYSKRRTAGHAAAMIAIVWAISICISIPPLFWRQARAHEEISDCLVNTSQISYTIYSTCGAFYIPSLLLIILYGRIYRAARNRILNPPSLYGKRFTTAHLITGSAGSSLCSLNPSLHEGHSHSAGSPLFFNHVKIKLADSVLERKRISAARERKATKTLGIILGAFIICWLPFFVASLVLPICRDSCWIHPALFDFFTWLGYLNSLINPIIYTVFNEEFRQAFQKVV

[12] = target: T4, 5-hydroxytryptamine receptor 3B (Mus musculus, UniProt Q9JHJ5); assay: Inhibition of [3H]BRL-43694 binding to 5-hydroxytryptamine 3 receptor in NG cells 108-15; format: cell-based
T4 sequence (Q9JHJ5 whole entry): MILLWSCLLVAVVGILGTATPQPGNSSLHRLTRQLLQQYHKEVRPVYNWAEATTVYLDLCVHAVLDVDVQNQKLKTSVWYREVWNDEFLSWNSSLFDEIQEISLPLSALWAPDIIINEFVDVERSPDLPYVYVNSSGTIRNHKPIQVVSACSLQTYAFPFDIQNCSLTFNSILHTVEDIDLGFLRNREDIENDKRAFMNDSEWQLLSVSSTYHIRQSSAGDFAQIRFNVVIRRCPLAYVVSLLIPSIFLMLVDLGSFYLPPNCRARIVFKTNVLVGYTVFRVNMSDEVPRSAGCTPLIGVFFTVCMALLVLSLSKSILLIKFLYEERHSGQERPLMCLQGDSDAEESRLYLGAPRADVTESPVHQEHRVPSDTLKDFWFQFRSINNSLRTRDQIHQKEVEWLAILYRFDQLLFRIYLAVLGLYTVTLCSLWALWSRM

[13] = target: 5-hydroxytryptamine receptor 2A (Bos taurus, UniProt Q75Z89); assay: Binding affinity against 5-hydroxytryptamine 2 receptor
5-hydroxytryptamine receptor 2A, sequence (Q75Z89 whole entry): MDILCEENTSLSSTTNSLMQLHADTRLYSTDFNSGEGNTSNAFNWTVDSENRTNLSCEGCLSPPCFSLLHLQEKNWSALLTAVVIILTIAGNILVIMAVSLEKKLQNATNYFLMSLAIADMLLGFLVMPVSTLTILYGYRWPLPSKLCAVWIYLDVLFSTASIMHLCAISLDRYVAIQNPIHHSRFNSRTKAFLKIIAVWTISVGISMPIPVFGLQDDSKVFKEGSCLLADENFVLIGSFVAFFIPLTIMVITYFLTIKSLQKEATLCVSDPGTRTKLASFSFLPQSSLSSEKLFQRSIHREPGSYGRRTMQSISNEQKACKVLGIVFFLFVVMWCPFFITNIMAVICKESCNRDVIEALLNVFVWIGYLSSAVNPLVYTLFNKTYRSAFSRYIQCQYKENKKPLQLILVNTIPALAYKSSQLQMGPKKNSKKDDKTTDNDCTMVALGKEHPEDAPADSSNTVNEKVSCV

D(1A) dopamine receptor [14] = target: D(1A) dopamine receptor (Mus musculus, UniProt Q61616); assay: Binding affinity against Dopamine receptor D1
D(1A) dopamine receptor (Mus musculus, UniProt Q61616), sequence (Q61616 whole entry): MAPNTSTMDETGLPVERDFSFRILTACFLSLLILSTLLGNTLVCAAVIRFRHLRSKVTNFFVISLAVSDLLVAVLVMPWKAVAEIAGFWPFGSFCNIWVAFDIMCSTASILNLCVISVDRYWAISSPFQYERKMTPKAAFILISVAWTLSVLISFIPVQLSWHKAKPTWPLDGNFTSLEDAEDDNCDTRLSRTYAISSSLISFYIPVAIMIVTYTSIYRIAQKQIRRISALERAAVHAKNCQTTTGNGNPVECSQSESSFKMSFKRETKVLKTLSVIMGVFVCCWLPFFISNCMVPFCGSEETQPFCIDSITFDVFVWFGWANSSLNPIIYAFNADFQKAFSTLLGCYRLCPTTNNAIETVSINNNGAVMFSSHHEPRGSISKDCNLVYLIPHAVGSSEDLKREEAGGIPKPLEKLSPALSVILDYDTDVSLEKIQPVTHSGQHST

[15] = target: Sigma non-opioid intracellular receptor 1 (Homo sapiens, UniProt Q99720); assay: Binding affinity against sigma receptor
Sigma non-opioid intracellular receptor 1 (Homo sapiens, UniProt Q99720), sequence (Q99720 whole entry): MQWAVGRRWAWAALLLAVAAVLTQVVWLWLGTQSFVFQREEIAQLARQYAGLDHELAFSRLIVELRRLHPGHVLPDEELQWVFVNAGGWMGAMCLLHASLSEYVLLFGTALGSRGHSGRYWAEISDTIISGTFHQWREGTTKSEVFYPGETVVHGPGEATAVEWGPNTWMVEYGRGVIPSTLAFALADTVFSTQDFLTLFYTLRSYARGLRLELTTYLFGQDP

D(1A) dopamine receptor [16] = target: T3, D(1A) dopamine receptor; assay: Binding affinity of compound towards Dopamine receptor D1 using [3H]SCH-23390 (0.5 nM) ligand in striatum bovine was determined; format: tissue-based

SMILES	inhibition [1]	inhibition (Bos taurus [2])	inhibition (Bos taurus [3])	inhibition [4]	IC50 [6]	Ki (D(2) dopamine receptor)	Ki [9]	further results
COc1ccc(C(=O)NCCN2CCN(C3CCCCc4ccccc43)CC2)cc1 (stereo not drawn)	11%	10%	0%	60%				
COc1ccc(C(=O)NCCN2CCN(C3CCCc4ccccc43)CC2)cc1 (stereo not drawn)	63%	28%	0%	7%				
COc1ccc(C(=O)NCCN2CCN(C3CCc4ccccc43)CC2)cc1 (stereo not drawn)	45%	17%	6%	11%				
Cc1ccc(C(=O)NCCN2CCN(C3CCCCc4ccccc43)CC2)cc1 (stereo not drawn)	0%	14%	0%	47%				
Cc1ccc(C(=O)NCCN2CCN(C3CCCc4ccccc43)CC2)cc1 (stereo not drawn)	42%	6%	0%	5%				
O=C(NCCCN1CCN(C2CCCc3ccccc32)CC1)c1ccc(F)cc1 (stereo not drawn)	68%	19%	6%	0%				
O=C(NCCCN1CCN(C2CCCc3ccccc32)CC1)c1ccccc1 (stereo not drawn)	39%	17%	11%	2%				
O=C(NCCN1CCN(C2CCCCc3ccccc32)CC1)c1ccc(F)cc1 (stereo not drawn)	22%	23%	0%	31%				
O=C(NCCN1CCN(C2CCCCc3ccccc32)CC1)c1ccccc1 (stereo not drawn)	51%	37%	0%	7%				
O=C(NCCN1CCN(C2CCc3ccccc32)CC1)c1ccc(F)cc1 (stereo not drawn)	69%	0%	36%	0%				
O=C(NCCN1CCN(C2CCCc3ccccc32)CC1)c1ccc(F)cc1 (single isomer, unassigned; (+))					1450 nM	740 nM	710 nM	Ki [5]: 50 nM; Ki ([7]; read-out: Ki): 1300 nM; Ki [8]: 190 nM
O=C(NCCN1CCN(C2CCCc3ccccc32)CC1)c1ccccc1 (single isomer, unassigned; (-))					14 nM	130 nM	190 nM	Ki [5]: 0.4 nM; Ki (Histamine H1 receptor): 70 nM; LLR msad (Rattus norvegicus): 2.75 mg/kg
O=C(NCCN1CCN(C2CCCc3ccccc32)CC1)c1ccc(F)cc1 (single isomer, unassigned; (-))					15 nM	70 nM	124 nM	Ki ([7]; read-out: Ki): 1380 nM; Ki (D(1A) dopamine receptor [10]): 3090 nM; Ki (Histamine H1 receptor): 58 nM; LLR msad (Rattus norvegicus): 2.25 mg/kg; Ki [8]: 130 nM
O=C(NCCN1CCN(C2CCCc3ccccc32)CC1)c1ccccc1 (stereo in doubt; 32) [listing 1 of 2 here]					36 nM	110 nM	150 nM	Ki [5]: 1.1 nM; Ki ([7]; read-out: Ki): 710 nM; Ki [11]: 6920 nM; Ki [12]: 3470 nM; Ki (D(1A) dopamine receptor [10]): 21900 nM; Ki (Histamine H1 receptor): 30 nM; Ki [8]: 90 nM
O=C(NCCN1CCN(C2CCCc3ccccc32)CC1)c1ccccc1 (stereo in doubt; 32) [listing 2 of 2 here]	93%	0%	4%	4%				
O=C(NCCN1CCN(C2CCCc3ccccc32)CC1)c1ccc(F)cc1 (stereo in doubt; 33) [listing 1 of 2 here]					52 nM	70 nM	80 nM	Ki [5]: 1.5 nM; Ki ([7]; read-out: Ki): 1180 nM; Ki [11]: 9770 nM; Ki [12]: 3470 nM; Ki (D(1A) dopamine receptor [10]): 12000 nM; Ki (Histamine H1 receptor): 140 nM; Ki [8]: 280 nM
O=C(NCCN1CCN(C2CCCc3ccccc32)CC1)c1ccc(F)cc1 (stereo in doubt; 33) [listing 2 of 2 here]	88%	17%	22%	3%				
O=C(NCCN1CCN(C2CCCc3ccccc32)CC1)c1ccc(Cl)cc1 (stereo in doubt; 34) [listing 1 of 2 here]					75 nM	120 nM	410 nM	Ki [5]: 10 nM; Ki [7]: 1000 nM
O=C(NCCN1CCN(C2CCCc3ccccc32)CC1)c1ccc(Cl)cc1 (stereo in doubt; 34) [listing 2 of 2 here]	86%	6%	23%	29%				
O=C(NCCN1CCN(C2CCCc3ccccc32)CC1)c1ccc(Cl)cc1 (stereo in doubt; (+)-34)					1500 nM	700 nM	8380 nM	Ki [5]: 210 nM; Ki [7]: 3800 nM; Ki (D(1A) dopamine receptor [10]): 19700 nM; Ki [8]: 200 nM
O=C(NCCN1CCN(C2CCCc3ccccc32)CC1)c1ccc(Cl)cc1 (stereo in doubt; (-)-34)					38 nM	480 nM	450 nM	Ki [5]: 4 nM; Ki [7]: 2700 nM; Ki (D(1A) dopamine receptor [10]): 27000 nM; LLR msad (Rattus norvegicus): 2.5 mg/kg; Ki [8]: 1250 nM
CCCN(CCC)C1CCc2cccc(O)c2C1 (stereo not drawn) [8-OH-DPAT]						2380 nM	9460 nM	Ki ([7]; read-out: Ki): 1100 nM; Ki [13]: > 1000 nM; Ki (D(1A) dopamine receptor [14]): > 1000 nM; Ki (D(1A) dopamine receptor [10]): 87300 nM; LLR msad (Rattus norvegicus): 2.2 mg/kg; Ki [8]: 5240 nM; Ki [15]: > 2430 nM
O=C1CC2(CCCC2)CC(=O)N1CCCCN1CCN(c2ncccn2)CC1 [BUSPIRONE]						44 nM	1320 nM	Ki ([7]; read-out: Ki): 1250 nM; Ki [13]: 178 nM; Ki (D(1A) dopamine receptor [14]): > 1000 nM; Ki (D(1A) dopamine receptor [10]): 6100 nM
OCCN1CCN(CC/C=C2\c3ccccc3Sc3ccc(C(F)(F)F)cc32)CC1 [E-FLUPENTIXOL]								Ki (D(1A) dopamine receptor [16]): 18 nM
